This note sets out measurements from patent US8778957B2, “CGRP receptor antagonists” (Merck Sharp & Dohme Corp., priority 2009, dated 2014).

The structures appear in SMILES notation.

The test has as its target recombinant human CL receptor/RAMP1 (Homo sapiens (Human), UniProt O60894+Q16602). Kind of test: Recombinant receptor binding assay (125I-hCGRP). As to conditions: membranes of HEK 293 cells expressing human CL receptor/RAMP1, 10 pM 125I-hCGRP. As to the method:
RECOMBINANT RECEPTOR: Human CL receptor (Genbank accession number L76380) was subcloned into the expression vector pIREShyg2 (BD Biosciences Clontech) as a 5′NheI and 3′ PmeI fragment. Human RAMP 1 (Genbank accession number AJ001014) was subcloned into the expression vector pIRESpuro2 (BD Biosciences Clontech) as a 5′NheI and 3′NotI fragment. HEK 293 cells (human embryonic kidney cells; ATCC #CRL-1573) were cultured in DMEM with 4.5 g/L glucose, 1 mM sodium pyruvate and 2 mM glutamine supplemented with 10% fetal bovine serum (FBS), 100 units/mL penicillin and 100 μg/mL streptomycin, and maintained at 37° C. and 95% humidity. Cells were subcultured by treatment with 0.25% trypsin with 0.1% EDTA in HBSS. Stable cell line generation was accomplished by co-transfecting 10 μg of DNA with 30 μg Lipofectamine 2000 (Invitrogen) in 75 cm^2 flasks. CL receptor and RAMP1 expression constructs were co-transfected in equal amounts. Twenty-four hours after transfection the cells were diluted and selective medium (growth medium+300 μg/mL hygromycin and 1 μg/mL puromycin) was added the following day. A clonal cell line was generated by single cell deposition utilizing a FACS Vantage SE (Becton Dickinson). Growth medium was adjusted to 150 μg/mL hygromycin and 0.5 μg/mL puromycin for cell propagation.
RECOMBINANT RECEPTOR BINDING ASSAY: Cells expressing recombinant human CL receptor/RAMP1 were washed with PBS and harvested in harvest buffer containing 50 mM HEPES, 1 mM EDTA and Complete protease inhibitors (Roche). The cell suspension was disrupted with a laboratory homogenizer and centrifuged at 48,000 g to isolate membranes. The pellets were resuspended in harvest buffer plus 250 mM sucrose and stored at −70° C. For binding assays, 20 μg of membranes were incubated in 1 ml binding buffer (10 mM HEPES, pH 7.4, 5 mM MgCl2, and 0.2% BSA) for 3 hours at room temperature containing 10 pM ^125I-hCGRP (GE Healthcare) and antagonist. The assay was terminated by filtration through 96-well GFB glass fiber filter plates (PerkinElmer) that had been blocked with 0.05% polyethyleneimine. The filters were washed 3 times with ice-cold assay buffer (10 mM HEPES, pH 7.4 and 5 mM MgCl2). Scintillation fluid was added and the plates were counted on a Topeount (Packard). Non-specific binding was determined and the data analysis was carried out with the apparent dissociation constant (Ki) determined by using a non-linear least squares fitting the bound CPM data to the equation below:
[formula] Where Y is observed CPM bound, Ymax is total bound counts, Ymin is non specific bound counts, (Ymax−Ymin) is specific bound counts, % Imax is the maximum percent inhibition, % I min is the minimum percent inhibition, radiolabel is the probe, and the Kd is the apparent dissociation constant for the radioligand for the receptor as determined by Hot saturation experiments.

Chain of recombinant human CL receptor/RAMP1 (Q16602 23-461): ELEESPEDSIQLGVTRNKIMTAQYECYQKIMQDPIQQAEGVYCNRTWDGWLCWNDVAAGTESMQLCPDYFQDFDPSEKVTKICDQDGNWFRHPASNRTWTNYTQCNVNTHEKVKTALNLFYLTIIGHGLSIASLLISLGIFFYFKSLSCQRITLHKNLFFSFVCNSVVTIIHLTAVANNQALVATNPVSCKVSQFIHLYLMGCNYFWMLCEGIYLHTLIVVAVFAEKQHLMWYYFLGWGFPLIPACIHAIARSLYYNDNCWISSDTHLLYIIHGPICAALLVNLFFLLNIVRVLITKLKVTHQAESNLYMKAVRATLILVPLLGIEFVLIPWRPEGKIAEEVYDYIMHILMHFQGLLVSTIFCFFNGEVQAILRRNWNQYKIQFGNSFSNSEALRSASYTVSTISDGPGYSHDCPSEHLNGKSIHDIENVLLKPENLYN
Chain of recombinant human CL receptor/RAMP1 (O60894 27-148): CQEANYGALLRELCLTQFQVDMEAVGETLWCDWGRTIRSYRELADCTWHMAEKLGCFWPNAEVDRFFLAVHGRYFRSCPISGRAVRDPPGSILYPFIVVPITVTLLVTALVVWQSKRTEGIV

As to `O=C1NC2(CCCC2)CN(Cc2ccc3cc4c(cc3n2)C[C@]2(C4)C(=O)Nc3ncccc32)C1Cc1ccccc1` (stereo partly shown) [Example 87], the Ki (in general, the dissociation constant of the complex between target and ligand, obtained from inhibition or displacement) amounted to 0.34 nM.

Take `CC(C)(C)OC(=O)N1CCN(Cc2ccc3cc4c(cc3n2)C[C@]2(C4)C(=O)Nc3ncccc32)CC1c1ccccc1` (stereo partly shown) [Example 61]: the Ki worked out at 58 nM.

On to `O=C1NC2(CCCC2)CN(Cc2ccc3cc4c(cc3n2)C[C@]2(C4)C(=O)Nc3ncccc32)C1c1ccccc1` (stereo partly shown) [Example 69], for which the Ki was 43 nM.

Turning to `O=C1CC2(CCN(Cc3ccc4cc5c(cc4n3)CC3(C5)C(=O)Nc4ncccc43)CC2)Oc2ccccc21` (stereo not shown) [Example 114], the inhibition constant (Ki) stood at 15000 nM.

On to `O=C1N[C@H](Cc2ccccc2)CN(Cc2ccc3cc4c(cc3n2)C[C@]2(C4)C(=O)Nc3ncccc32)C1c1ccccc1` (stereo partly shown) [Example 84], for which the Ki stood at 0.72 nM.

Regarding `O=C1Nc2ncccc2[C@@]12Cc1cc3ccc(CN4CCNCC4c4ccccc4)nc3cc1C2` (stereo partly shown) [Example 64], the Ki came to 6.6 nM.

For `O=C1NC2(CCCC2)CN(Cc2ccc3cc4c(cc3n2)C[C@]2(C4)C(=O)Nc3ncccc32)[C@@H]1Cc1ccccc1` [Example 88], the Ki is 2.6 nM.

In the case of `O=C1Nc2ncccc2[C@@]12Cc1cc3ccc(CN4CCNCC4)nc3cc1C2` [Example 76], the Ki stood at 0.73 nM.

For the molecule `CC1(Cc2ccccc2)C(=O)NC2(CCCC2)CN1Cc1ccc2cc3c(cc2n1)C[C@]1(C3)C(=O)Nc2ncccc21` (stereo partly shown) [Example 95], the Ki was found to be 17 nM.

For the molecule `CN1C(=O)NC(=O)[C@]12Cc1cc3ccc(CN4C(=O)C(C)(C)Nc5ccccc54)nc3cc1C2` [Example 8, (7R)-2-[(3,3-Dimethyl-2-oxo-3,4-dihydroquinoxalin-1(2H)-yl)methyl]-3′-methyl-6,8-dihydro-2′H,5′H-spiro[cyclopenta[g]quinoline-7,4′-imidazolidine]-2′,5′-dione], the inhibitory constant (Ki) turned out to be 35 nM.

Consider `CN1C(=O)NC(=O)C12Cc1cc3ccc(CN4CCC(Cc5ccccc5)CC4)nc3cc1C2` (racemic) [Example 7, (±)-2-[(4-Benzylpiperidin-1-yl)methyl]-3′-methyl-6,8-dihydro-2′H,5′H-spiro[cyclopenta[g]quinoline-7,4′-imidazolidine]-2′,5′-dione], for which the Ki was 3800 nM.

For the molecule `O=C1Nc2ncccc2C12Cc1cc3ccc(CN4CCc5c([nH]c6ccccc56)C4)nc3cc1C2` (stereo not shown) [Example 45], the Ki amounted to 180 nM.

With `CC1(C)CN(Cc2ccc3cc4c(cc3n2)C[C@]2(C4)C(=O)Nc3ncccc32)[C@@H](Cc2ccccc2)C(=O)N1` [Example 3, (7S)-2-{[(2S)-2-Benzyl-5,5-dimethyl-3-oxopiperazin-1-yl]methyl}-6,8-dihydrospiro[cyclopenta[g]quinoline-7,3′-pyrrolo[2,3-b]pyridin]-2′(1′H)-one], the Ki was determined as 0.77 nM.
